# Data from patent US12303497B2, “Anti-androgens for the treatment of metastatic castration-sensitive prostate cancer” (priority 2019, dated 2025).
# Test system: patients with metastatic castration-sensitive prostate cancer (mCSPC)
compound,measurement,setting,value
"CNC(=O)c1ccc(N2C(=S)N(c3cnc(C#N)c(C(F)(F)F)c3)C(=O)C23CCC3)cc1F [Apalutamide, 4-[7-(6-cyano-5-trifluoromethylpyridin-3-yl)-8-oxo-6-thioxo-5,7-diazaspiro[3.4]oct-5-yl]-2-fluoro-N-methylbenzamide]",Grade ≥3 rash led to discontinuation,7 patients,1.3%
same,Skin rash led to treatment discontinuation,12 patients,2.3%
same,Skin rash led to dose reduction,28 patients,5.3%
same,Adverse events led to discontinuation,42 patients,8.0%
same,Skin rash led to dose interruption,44 patients,8.4%
same,AE leading to discontinuation: Alanine aminotransferase increased,All Grades,0 no. (%)
same,AE leading to discontinuation: Anxiety,All Grades,1 (0.2) no. (%)
same,AE leading to discontinuation: Atrial fibrillation,All Grades,1 (0.2) no. (%)
same,AE leading to discontinuation: Cardiac failure,All Grades,0 no. (%)
same,AE leading to discontinuation: Cardio-respiratory arrest,All Grades,1 (0.2) no. (%)
same,AE leading to discontinuation: Cardiogenic shock,All Grades,1 (0.2) no. (%)
same,AE leading to discontinuation: Cerebrovascular disorder,All Grades,1 (0.2) no. (%)
same,AE leading to discontinuation: Cognitive disorder,All Grades,0 no. (%)
same,AE leading to discontinuation: Dehydration,All Grades,1 (0.2) no. (%)
same,AE leading to discontinuation: Dyspnea,All Grades,0 no. (%)
same,AE leading to discontinuation: Euphoric mood,All Grades,1 (0.2) no. (%)
same,AE leading to discontinuation: Fatigue,All Grades,4 (0.8) no. (%)
same,AE leading to discontinuation: Hot flush,All Grades,1 (0.2) no. (%)
same,AE leading to discontinuation: Hypothermia,All Grades,0 no. (%)
same,AE leading to discontinuation: Infections,All Grades,1 (0.2) no. (%)
same,AE leading to discontinuation: Intracranial hemorrhage,All Grades,0 no. (%)
same,AE leading to discontinuation: Ischemic cardiac events,All Grades,2 (0.4) no. (%)
same,AE leading to discontinuation: Large intestinal ulcer perforation,All Grades,1 (0.2) no. (%)
same,AE leading to discontinuation: Lip swelling,All Grades,1 (0.2) no. (%)
same,AE leading to discontinuation: Loss of consciousness,All Grades,0 no. (%)
same,AE leading to discontinuation: New cancer neoplasm,All Grades,7 (1.3) no. (%)
same,AE leading to discontinuation: Parkinson's disease,All Grades,1 (0.2) no. (%)
same,AE leading to discontinuation: Pleural effusion,All Grades,0 no. (%)
same,AE leading to discontinuation: Pulmonary edema,All Grades,0 no. (%)
same,AE leading to discontinuation: Pulmonary embolism,All Grades,1 (0.2) no. (%)
same,AE leading to discontinuation: Radiculopathy,All Grades,1 (0.2) no. (%)
same,AE leading to discontinuation: Rash (grouped term),All Grades,12 (2.3) no. (%)
same,AE leading to discontinuation: Respiratory failure,All Grades,0 no. (%)
same,AE leading to discontinuation: Seizure,All Grades,2 (0.4) no. (%)
same,AE leading to discontinuation: Subdural hemorrhage,All Grades,0 no. (%)
same,AE leading to discontinuation: Sudden cardiac death,All Grades,1 (0.2) no. (%)
same,AE leading to discontinuation: Sudden death,All Grades,0 no. (%)
same,AE leading to discontinuation: Suicide,All Grades,0 no. (%)
same,AE leading to dose interruption: Acute kidney injury,All Grades,1 (0.2) no. (%)
same,AE leading to dose interruption: Acute respiratory failure,All Grades,1 (0.2) no. (%)
same,AE leading to dose interruption: Allergy to chemicals,All Grades,1 (0.2) no. (%)
same,AE leading to dose interruption: Anemia,All Grades,2 (0.4) no. (%)
same,AE leading to dose interruption: Angina unstable,All Grades,0 no. (%)
same,AE leading to dose interruption: Anxiety,All Grades,2 (0.4) no. (%)
same,AE leading to dose interruption: Arthralgia,All Grades,2 (0.4) no. (%)
same,AE leading to dose interruption: Aspartate aminotransferase or alanine aminotransferase increased,All Grades,7 (1.3) no. (%)
same,AE leading to dose interruption: Asthenia,All Grades,3 (0.6) no. (%)
same,AE leading to dose interruption: Atrial fibrillation,All Grades,1 (0.2) no. (%)
same,AE leading to dose interruption: Bile duct obstruction,All Grades,0 no. (%)
same,AE leading to dose interruption: Blood alkaline phosphatase increased,All Grades,1 (0.2) no. (%)
same,AE leading to dose interruption: Cardiac amyloidosis,All Grades,0 no. (%)
same,AE leading to dose interruption: Cardiac disorder,All Grades,0 no. (%)
same,AE leading to dose interruption: Cardiac failure,All Grades,0 no. (%)
same,AE leading to dose interruption: Cardiac failure congestive,All Grades,1 (0.2) no. (%)
same,AE leading to dose interruption: Cerebrovascular accident,All Grades,1 (0.2) no. (%)
same,AE leading to dose interruption: Cheilitis,All Grades,1 (0.2) no. (%)
same,AE leading to dose interruption: Chronic hepatitis,All Grades,1 (0.2) no. (%)
same,AE leading to dose interruption: Chronic obstructive pulmonary disease,All Grades,2 (0.4) no. (%)
same,AE leading to dose interruption: Cognitive disorder,All Grades,1 (0.2) no. (%)
same,AE leading to dose interruption: Confusional state,All Grades,1 (0.2) no. (%)
same,AE leading to dose interruption: Constipation,All Grades,1 (0.2) no. (%)
same,AE leading to dose interruption: Decreased appetite,All Grades,2 (0.4) no. (%)
same,AE leading to dose interruption: Dehydration,All Grades,0 no. (%)
same,AE leading to dose interruption: Depression,All Grades,1 (0.2) no. (%)
same,AE leading to dose interruption: Diabetes mellitus,All Grades,1 (0.2) no. (%)
same,AE leading to dose interruption: Diarrhea,All Grades,1 (0.2) no. (%)
same,AE leading to dose interruption: Diplegia,All Grades,0 no. (%)
same,AE leading to dose interruption: Dizziness,All Grades,1 (0.2) no. (%)
same,AE leading to dose interruption: Dyspnea,All Grades,1 (0.2) no. (%)
same,AE leading to dose interruption: Dysuria,All Grades,1 (0.2) no. (%)
same,AE leading to dose interruption: Edema,All Grades,1 (0.2) no. (%)
same,AE leading to dose interruption: Eyelid edema,All Grades,1 (0.2) no. (%)
same,AE leading to dose interruption: Facial edema,All Grades,1 (0.2) no. (%)
same,AE leading to dose interruption: Fall,All Grades,1 (0.2) no. (%)
same,AE leading to dose interruption: Fatigue,All Grades,6 (1.1) no. (%)
same,AE leading to dose interruption: Febrile neutropenia,All Grades,1 (0.2) no. (%)
same,AE leading to dose interruption: Gamma-glutamyltransferase increased,All Grades,1 (0.2) no. (%)
same,AE leading to dose interruption: Gastric ulcer perforation,All Grades,1 (0.2) no. (%)
same,AE leading to dose interruption: Gastritis,All Grades,0 no. (%)
same,AE leading to dose interruption: General physical health deterioration,All Grades,1 (0.2) no. (%)
same,AE leading to dose interruption: Hallucination,All Grades,1 (0.2) no. (%)
same,AE leading to dose interruption: Headache,All Grades,1 (0.2) no. (%)
same,AE leading to dose interruption: Hematoma,All Grades,1 (0.2) no. (%)
same,AE leading to dose interruption: Hematuria,All Grades,2 (0.4) no. (%)
same,AE leading to dose interruption: Hemorrhage intracranial,All Grades,1 (0.2) no. (%)
same,AE leading to dose interruption: Hemorrhagic erosive gastritis,All Grades,1 (0.2) no. (%)
same,AE leading to dose interruption: Hepatic cirrhosis,All Grades,1 (0.2) no. (%)
same,AE leading to dose interruption: Hepatic failure,All Grades,0 no. (%)
same,AE leading to dose interruption: Hip fracture,All Grades,1 (0.2) no. (%)
same,AE leading to dose interruption: Hot flush,All Grades,1 (0.2) no. (%)
same,AE leading to dose interruption: Hydronephrosis,All Grades,0 no. (%)
same,AE leading to dose interruption: Hyperbilirubinemia,All Grades,1 (0.2) no. (%)
same,AE leading to dose interruption: Hypersensitivity,All Grades,1 (0.2) no. (%)
same,AE leading to dose interruption: Hypertension,All Grades,6 (1.1) no. (%)
same,AE leading to dose interruption: Hypertriglyceridemia,All Grades,2 (0.4) no. (%)
same,AE leading to dose interruption: Hypokalemia,All Grades,1 (0.2) no. (%)
